Where two headings read alike, the source gives them in different places.
Key:
WT STING = WT STING (Homo sapiens, UniProt Q86WV6, H232R); test: Differential scanning fluorimetry (DSF) with WT STING; format: binding; parameters: truncated human WT STING or AQ STING (amino acid residues 140-343); 8xHis (N, cleaved yes); SUMO (N, cleaved yes); made in house; host or cells: E. coli Rosetta-gami B (DE3); settings: for ΔTm at 150 µM: read-out: DSF ΔTm WT STING
Text: (§1) Both WT and AQ human STING (G230A-R^293Q) cDNA were amplified by the use of PCR (Phusion® High-Fidelity DNA Polymerase, cat. # M0530S, NEB, Ipswich, USA) using oligonucleotides hSTING140-BamH-For ([…]) (SEQ ID NO:5) and hSTING379-Not-Rev3 ([…]) (SEQ ID NO:6) from pUNOI-hSTING-WT (cat. # punol-hstingwt, InvivoGen, San Diego, USA) and pUNO1-hSTING-HAQ plasmids (punol-hsting-haq, InvivoGen, San Diego, USA). Purified PCR products were cleaved with restriction enzymes BamHI (cat. # R^0136S, NEB, Ipswich, USA) and NotI (cat. # R^0189S, NEB, Ipswich, USA) and cloned into the pSUMO vector linearized with the identical enzymes. Plasmid pSUMO was created by introducing 8-His-SUMO sequence between NdeI and BamHI sites of pHis-parallel2 plasmid (Clontech, Moutain View, USA). pSUMO-STING WT or pSUMO-STING AQ plasmids thus encoded truncated human WT STING or AQ STING (amino acid residues 140-343) with N-terminal 8×His and SUMO tag.
(§2) The recombinant WT STING and AQ STING proteins were overexpressed in Rosetta-gami B (DE3) competent cells (cat. #71136-3, Merck Millipore, Billerica, USA). Bacterial pellets were re-suspended in ice-cold lysis buffer containing 50 mmol·l^−1 TrisCl (cat. # T1503, Sigma Aldrich, Czech Republic) pH 8.0, 300 mmol·l^−1 NaCl, 3 mmol·l^−1 (3-mercaptoethanol (cat. # M6250, Sigma Aldrich, Czech Republic), 10% glycerol (cat. #G5516, Sigma Aldrich, Czech Republic) and 20 mmol·l^−1 imidazole (cat. #15513, Sigma Aldrich, Czech Republic) using Dounce homogenizer. DNase I (cat. # D5025, Sigma Aldrich, Czech Republic) and RNase A (cat. # R^6513, Sigma Aldrich, Czech Republic) were added (final concentration 50 μg/ml) together with MgCl2 (final concentration 5 mmol·l^−1) to the homogenate and bacteria were lysed using French Press G-M™ High-Pressure Cell Press Homogenizer (1500 psi, 3 cycles). Lysate was spun 30,000 g for 20 minutes and supernatant was gently stirred with Ni-NTA resin (cat. #745400.25 Macherey-Nagel, Duren, Germany) for 30 minutes. The resin was poured into a chromatography column, washed with 50 ml buffer A (50 mmol·l^−1 TrisCl (pH 8.0), 800 mmol·l^−1 NaCl, 3 mmol·l^−1β-mercaptoethanol; 10% glycerol; 20 mmol·l^−1 imidazole) and 8-His-SUMO tagged STING proteins were eluted with 15 ml buffer A containing 300 mmol·l^−1 imidazole. The eluted proteins were cleaved with recombinant SUMO protease (80 pig/ml of protein solution, cat. #12588018, ThermoFisher, Waltham, USA). The proteins were further purified by size exclusion chromatography using HiLoad 16/60 Superdex 75 (cat. #28989333, GE Healthcare Bio-Sciences, Pittsburgh, USA) in 50 mmol·l^−1 Tris C1 buffer pH 7.4 containing 150 mmol·l^−1 NaCl, and 10% glycerol. Proteins were concentrated with Amicon® Ultra-15 10 K device (cat. # UFC901008, Merck Millipore, Billerica, USA) and flash frozen in liquid N2.
(§3) WT and AQ allelic forms of STING protein were diluted to the final concentration 0.1 mg/ml in 100 mmol·l^−1 TrisCl buffer pH 7.4 containing, 150 mmol·l^−1 NaCl, 1:500 SYPRO Orange (cat. # S6650, ThermoFisher, Waltham, USA) and 150 μM CDN or water. 20 μL solutions of the reaction mixtures were pipetted in triplicates into 96 well optical reaction plates and thermal denaturation of samples were performed on real time PCR cycler (LightCycler® 480 Instrument II—Roche, Basel, Switzerland). The first derivative of the thermal denaturation curves was performed to calculate denaturing temperatures of STING-CDN complexes and STING apoproteins. The thermal shift for each CDN was calculated by subtracting the average denaturing temperature of STING apoprotein from the average denaturing temperature of STING CDN complex.

AQ STING (G230A-R293Q) = target: T1, AQ STING (G230A-R293Q) (Homo sapiens, UniProt Q86WV6, G230A/H232R/R293Q); test: Differential scanning fluorimetry (DSF) with AQ STING; format: binding; settings: for ΔTm at 150 µM: read-out: DSF ΔTm AQ STING
T1 construct: truncated human WT STING or AQ STING (amino acid residues 140-343); 8xHis (N, cleaved yes); SUMO (N, cleaved yes); made in house; host or cells: E. coli Rosetta-gami B (DE3)
T1 sequence (Q86WV6 140-343 G230A/H232R/R293Q): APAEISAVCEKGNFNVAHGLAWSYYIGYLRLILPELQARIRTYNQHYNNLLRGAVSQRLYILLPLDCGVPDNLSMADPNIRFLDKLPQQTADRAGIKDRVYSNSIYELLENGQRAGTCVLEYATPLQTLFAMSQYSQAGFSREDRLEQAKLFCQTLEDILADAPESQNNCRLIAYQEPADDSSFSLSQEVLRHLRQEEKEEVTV
Text: as §1, §2, §3

[1] = thermal shift, truncated human WT STING 0.1 mg/ml, 150 μM CDN
[2] = thermal shift, truncated human AQ STING 0.1 mg/ml, 150 μM CDN

WT STING, sequence (Q86WV6 140-343 H232R): as the sequence (Q86WV6 140-343 G230A/H232R/R293Q) above, with A91G, Q154R counted along it

SMILES	ΔTm at 150 µM (WT STING; [1]) [°C]	ΔTm at 150 µM (AQ STING (G230A-R293Q); [2]) [°C]	also measured
Nc1ncnc2c1ncn2[C@@H]1O[C@@H]2COP(=O)(S)O[C@@H]3[C@H](F)[C@@H](COP(=O)(S)O[C@H]2[C@H]1F)C[C@H]3n1cnc2c(=O)[nH]cnc21 (single isomer, unassigned) [Compound 128d]	–	–	DSF ΔTm WT STING (WT STING; [1]): 13.4 °C; DSF ΔTm AQ STING (AQ STING (G230A-R293Q); [2]): 21.3 °C
C#Cc1cn([C@@H]2O[C@@H]3COP(=O)(O)OC4C(O)[C@@H](COP(=O)(O)OC3C2O)C[C@H]4n2cnc3c(=O)[nH]c(N)nc32)c2ncnc(N)c12 (stereo partly drawn) [Compound 114, (6R,8R,15R,17R)-8-{4-amino-5-ethynyl-7H-pyrrolo 2,3-dlpyrimidin-7-yl}-17-(2-amino-6-oxo-6,9-dihydro-1H-purin-9-yl)-3,9,12,18-tetrahydroxy-2,4,7,11,13-pentaoxa-3λ^5,12λ^5-diphosphatricyclo[13.2.1.0^6,10]octadecane-3,12-dione]	4.4	10.3	–
Nc1ncnc2c1ncn2[C@@H]1O[C@@H]2COP(=O)(S)O[C@@H]3[C@H](F)[C@@H](COP(=O)(S)O[C@H]2[C@H]1F)C[C@H]3n1cnc2c(=O)[nH]cnc21 (single isomer, unassigned) [Compound 128b]	–	–	DSF ΔTm WT STING (WT STING; [1]): 7.9 °C; DSF ΔTm AQ STING (AQ STING (G230A-R293Q); [2]): 13.8 °C
Nc1nc(N)c2ncn([C@@H]3O[C@@H]4COP(=O)(O)OC5C(O)[C@@H](COP(=O)(O)OC4C3F)C[C@H]5n3cnc4c(=O)[nH]c(N)nc43)c2n1 (stereo partly drawn) [Compound 117, (6R,8R,15R,17R)-17-(2-amino-6-oxo-6,9-dihydro-1H-purin-9-yl)-8-(2,6-diamino-9H-purin-9-yl)-9-fluoro-3,12,18-trihydroxy-2,4,7,11,13-pentaoxa-3λ^5,12λ^5-diphosphatricyclo[13.2.1.0^6,10]octadecane-3,12-dione]	9.4	17	–
Nc1nc2c(ncn2[C@@H]2C[C@@H]3COP(=O)(O)OC4C(O)[C@H](n5cnc6c(N)ncnc65)O[C@@H]4COP(O)(=S)OC2C3O)c(=O)[nH]1 (stereo partly drawn) [Compound 101, 2-amino-9-[(6R,8R,15R,17R)-8-(6-amino-9H-purin-9-yl)-3,9,12,18-tetrahydroxy-12-oxo-3-sulfanylidene-2,4,7,11,13-pentaoxa-3λ^5,12λ^5-diphosphatricyclo[13.2.1.0^6,10]octadecan-17-yl]-6,9-dihydro-1H-purin-6-one]	–	–	ΔTm at 150 µM (WT STING): 12 °C; ΔTm at 150 µM (AQ STING (G230A-R293Q)): 19.8 °C
Nc1ncc2ncn([C@@H]3O[C@@H]4COP(=O)(O)OC5C(O)[C@@H](COP(=O)(O)OC4C3O)C[C@H]5n3cnc4c(=O)[nH]c(N)nc43)c2n1 (stereo partly drawn) [Compound 106, (6R,8R,15R,17R)-17-(2-amino-6-oxo-6,9-dihydro-1H-purin-9-yl)-8-(2-amino-9H-purin-9-yl)-3,9,12,18-tetrahydroxy-2,4,7,11,13-pentaoxa-3λ^5,12λ^5-diphosphatricyclo[13.2.1.0^6,10]octadecane-3,12-dione]	5.5	13.8	–
CNc1ncnc2c1ncn2[C@@H]1O[C@@H]2COP(=O)(O)OC3C(O)[C@@H](COP(=O)(O)OC2C1O)C[C@H]3n1cnc2c(=O)[nH]c(N)nc21 (stereo partly drawn) [Compound 108, (6R,8R,15R,17R)-17-(2-amino-6-oxo-6,9-dihydro-1H-purin-9-yl)-3,9,12,18-tetrahydroxy-8-[6-(methylamino)-9H-purin-9-yl]-2,4,7,11,13-pentaoxa-3λ^5,12λ^5-diphosphatricyclo[13.2.1.0^6,10]octadecane-3,12-dione]	6	12.5	–
Nc1nc2c(ncn2[C@@H]2C[C@@H]3COP(=O)(O)OC4C(O)[C@H](n5nnc6c(N)ncnc65)O[C@@H]4COP(=O)(O)OC2C3O)c(=O)[nH]1 (stereo partly drawn) [Compound 116, (6R,8R,15R,17R)-8-{7-amino-3H-[1,2,3]triazolo[4,5-d]pyrimidin-3-yl}-17-(2-amino-6-oxo-6,9-dihydro-1H-purin-9-yl)-3,9,12,18-tetrahydroxy-2,4,7,11,13-pentaoxa-3λ^5,12λ^5-diphosphatricyclo[13.2.1.0^6,10]octadecane-3,12-dione]	0.9	8.9	–

Continued, in another order:

ΔTm at 150 µM (WT STING; [1]) [°C]	ΔTm at 150 µM (AQ STING (G230A-R293Q); [2]) [°C]	SMILES	also measured
5.6	11.3	Nc1ncnc2c1c(I)cn2[C@@H]1O[C@@H]2COP(=O)(O)OC3C(O)[C@@H](COP(=O)(O)OC2C1O)C[C@H]3n1cnc2c(=O)[nH]cnc21 (stereo partly drawn) [Compound 124, (6R,8R,15R,17R)-8-{4-amino-5-iodo-7H-pyrrolo[2,3-d]pyrimidin-7-yl}-3,9,12,18-tetrahydroxy-17-(6-oxo-6,9-dihydro-1H-purin-9-yl)-2,4,7,11,13-pentaoxa-3λ^5,12λ^5-diphosphatricyclo[13.2.1.0^6,10]octadecane-3,12-dione]	–
5.6	12.8	Nc1nc2c(ncn2[C@@H]2C[C@@H]3COP(=O)(O)OC4C(N)[C@H](n5cnc6c(N)ncnc65)O[C@@H]4COP(=O)(O)OC2C3O)c(=O)[nH]1 (stereo partly drawn) [Compound 109, (6R,8R,15R,17R)-9-amino-17-(2-amino-6-oxo-6,9-dihydro-1H-purin-9-yl)-8-(6-amino-9H-purin-9-yl)-3,12,18-trihydroxy-2,4,7,11,13-pentaoxa-3λ^5,12λ^5-diphosphatricyclo[13.2.1.0^6,10]octadecane-3,12-dione]	–
5.1	13	Nc1nc2c(ncn2[C@@H]2C[C@@H]3COP(=O)(O)OC4C(F)[C@H](n5cnc6c(N)nc(F)nc65)O[C@@H]4COP(=O)(O)OC2C3O)c(=O)[nH]1 (stereo partly drawn) [Compound 111, (6R,8R,15R,17R)-8-(6-amino-2-fluoro-9H-purin-9-yl)-17-(2-amino-6-oxo-6,9-dihydro-1H-purin-9-yl)-9-fluoro-3,12,18-trihydroxy-2,4,7,11,13-pentaoxa-3λ^5,12λ^5-diphosphatricyclo[13.2.1.0^6,10]octadecane-3,12-dione]	–
4.2	11.4	CSc1ncnc2c1ncn2[C@@H]1O[C@@H]2COP(=O)(O)OC3C(O)[C@@H](COP(=O)(O)OC2C1O)C[C@H]3n1cnc2c(=O)[nH]cnc21 (stereo partly drawn) [Compound 125, (1S,6R,8R,9R,10S,15R,17R,18R)-3,9,12,18-tetrahydroxy-8-[16-(methylsulfanyl)-9H-purin-9-yl]-17-(6-oxo-6,9-dihydro-1H-purin-9-yl)-2,4,7,11,13-pentaoxa-3λ^5,12λ^5-diphosphatricyclo[13.2.1.0^6,10]octadecane-3,12-dione]	–
